Key:
Assay type in all cases: cell-based
S. aureus Smith A9537 = test: M.I.C. by tube dilution, S. aureus Smith A9537; conditions: Staphylococcus aureus, SMITHA9537; read-out: found to inhibit S. aureus A9537 at a concentration of
D. pneumoniae A9585 = test: M.I.C. by tube dilution, D. pneumoniae A9585; conditions: Streptococcus pneumoniae, A9585; read-out: found to inhibit D. pneumoniae A9585 at a concentration of
St. pyrogenes = test: Inhibition of St. pyrogenes; conditions: read-out: found to inhibit St. pyrogenes at a concentration of
E. coli Juhl A15119 = test: M.I.C. by tube dilution, E. coli Juhl A15119; conditions: Escherichia coli, JUHLA15119; read-out: found to inhibit E. coli A15119 at a concentration of

- MIC (S. aureus Smith A9537): > 125 µg/mL
- MIC (D. pneumoniae A9585): > 8 µg/mL
- MIC (St. pyrogenes): > 8 µg/mL
- MIC (E. coli Juhl A15119): > 125 µg/mL
Structure (SMILES): CC1=C(C(=O)O)N2C(=O)[C@@H](N)[C@H]2CO1 (relative stereo) [BC-L61, 7β-Amino-3-methyl-Δ^3 -O-2-isocephem-4-carboxylic acid]
